The values that follow are results of earlier work, collected in US20210072238A1, “IMMOBILIZATION OF PROTEINS WITH CONTROLLED ORIENTATION AND LOAD” (Oregon State University, priority 2019, published 2021).

For this series the following is noted: ncAA incorporated in protein.

`Cc1nnc(-c2ccc(C[C@H](N)C(=O)O)cc2)nn1` [Tet2.0, (S)-2-amino-3-(4-(6-methyl-1,2,4,5-tetrazin-3-yl)phenyl) propanoic acid]: the “second-order in proteo reaction rate with sTCO” value was ~72,000 M^−1 s^−1.
